Results as given in ChEMBL document CHEMBL1157539, “Thousands of chemical starting points for antimalarial lead identification” (Nature, 2010).

Tested on: Plasmodium falciparum
Assay: GSK_TCMDC: Inhibition of Plasmodium falciparum 3D7 in whole erythrocytes, using parasite LDH activity as an index of growth.
Format: functional, organism-based
Settings: Plasmodium falciparum, 3D7

Row | Compound | XC50 [nM]
1 | O=[N+]([O-])c1cccc(/C=N/Nc2ccnc3cc(F)ccc23)c1 | 910
2 | CCN(CC)CCCC(C)Nc1cc(C)nc2cc(Cl)ccc12 (configuration not stated) | 726
3 | CC(C)(C)N1CCC(N(Cc2ccc(-c3ccc(C(F)(F)F)cc3)cc2)C(=O)Cn2c(CCc3cccc(F)c3F)cc(=O)c3cccnc32)CC1 | 705
4 | O=C(c1cnn(-c2ccccc2)c1C(F)(F)F)N1CCN(c2ccnc3cc(Cl)ccc23)CC1 | 532
5 | CNCCNCc1ccc(-c2ccc(-c3nc4cc(C(F)(F)F)ccc4[nH]3)cc2)cc1 | 314
6 | Cc1ccc(NCc2cccc(F)c2)cc1S(=O)(=O)N[C@@H]1CCN(C#N)C1 | 785
7 | Cc1cc(NC(=O)Nc2ccc(N(C)C)cc2)c2cc(Cl)ccc2n1 | 857
8 | CCn1c(-c2nonc2N)nc2cnc(Oc3cccc(NC(=O)c4ccc(OCCN5CCCCC5)cc4)c3)cc21 | 1060
9 | CCC[C@@H]([C@@H](CC1CCC(C)CC1)C(=O)N[C@@H](CCCCNC(=O)c1ccccn1)C(=O)Nc1nccs1)N(O)C=O (some centres not stated) | 51.3
10 | CC1(C)NC(N)=NC(=N)N1OCCCOc1ccccc1N | 3.2
11 | O=C1OC(c2cc3ccccc3n2S(=O)(=O)c2ccccc2)(c2cc3ccccc3n2S(=O)(=O)c2ccccc2)c2ccccc21 | 846
12 | COCCNCc1ncsc1-c1ccc2c(Nc3cc(O)c(Cl)cc3F)ccnc2c1 | 547
13 | CC[C@H]1CN2CC[C@@H]1C[C@H]2[C@H](O)c1cc(-c2cccnc2)nc2ccc(OC)cc12 | 37.9
14 | COc1ccc2nccc(N3CCCN(CCNCc4ccc5c(n4)NC(=O)CS5)CC3)c2n1 | 155
15 | CN1CCCC1CCNCc1cccc(-c2cnc(N(C)C3CCCCC3)nc2)c1 (configuration not stated) | 853
16 | CCNc1cc(C)nc(Nc2ccc(NC(=O)c3ccccc3Br)cc2)n1 | 742
17 | S=C(NCCCCCN1CCC(c2c[nH]c3ccccc23)CC1)Nc1cc(Cl)cc(Cl)c1 | 868
18 | O=C1OC(c2ccccc2)(c2ccccc2)CN1C1CCN(Cc2ccc(O)c(Cl)c2)C1 (configuration not stated) | 955
19 | COc1ccc(NC(=O)/C=C/c2ccccc2Cl)cc1OCCN1CCC(N2CCCC2)CC1 | 786
20 | CC(CN(C)C)C(=O)Nc1cccc(-c2cccc(-c3nc4ccccc4[nH]3)c2)c1 (configuration not stated) | 1060
21 | CCc1ccc(OCCCON2C(=N)N=C(N)NC2(C)C)cc1 | 3.2
22 | CCCCCCCc1c2c(C)c(C(=O)OCC)nc-2cc2n1CC(C)=C2C | 1140
23 | CCCCOc1ccc(N2C(N)=NC(N)=NC2(C)C)cc1 | 215
24 | CCCCC#Cc1cnc2nc(N)[nH]c(=O)c2n1 | 646
25 | CCC(=O)Nc1ccc(C(O)CN2CCC3(C=Cc4ccccc4O3)CC2)cc1 (configuration not stated) | 1200

Row | Compound | XC50 [nM]
26 | Cn1nc(-c2ccc(Cl)cc2)c2cc(C(=O)NCCN3CCOCC3)sc21 | 721
27 | COc1ccc(C(=O)NCCCCN2CCC(c3ccc4c(c3OC)CCCC4)CC2)cc1-c1ccc(C(F)(F)F)cc1 | 755
28 | CCn1c(-c2nonc2N)nc2c(-c3ccccc3)ncc(OCCCCNCCc3ncc[nH]3)c21 | 852
29 | Fc1cccc(COc2ccc(Nc3ncnc4sc(C#C[C@H]5CC[C@H](CN6CCOCC6)N5)cc34)cc2Cl)c1 | 920
30 | CC(C)COc1ccc(Cl)cc1Cc1ccc(-c2nc3ccc(Cl)cc3[nH]2)o1 | 925
31 | O=C(c1cncc(-c2ccccc2)c1)N(Cc1cncn1Cc1ccccc1F)CC1CC1 | 804
32 | CN(c1ccccc1C(=O)Nc1cc(Cl)ccc1Oc1ccccc1)S(=O)(=O)c1ccccc1 | 742
33 | O=C(Nc1cccc(CN2CCCN(CC3CC3)CC2)c1)c1ccc(Cl)c(Cl)c1 | 1030
34 | CC(=O)Nc1cccc(-c2cnc(N)c3cc(-c4ccc5c(c4)OCO5)ccc23)c1 | 491
35 | O=C(CCCCCNC(=O)c1ccc(O)c(-c2ccc(Cl)c(Cl)c2)c1)NCc1cccc2ccccc12 | 762
36 | CC(Oc1ccc(NC(=O)c2cccs2)cc1)C(=O)c1ccc(Cl)cc1 (configuration not stated) | 774
37 | Cc1[nH]c2ccc([N+](=O)[O-])cc2c1C1=CCN(C)CC1 | 335
38 | Cc1cccc(C)c1OC(=O)C(C)C(O)C1(Sc2ccccc2)CCN(C)CC1 (configuration not stated) | 734
39 | O=C1COC(c2ccccc2)(c2ccccc2)CN1CC1CCN(Cc2ccc(O)cc2Cl)C1 (configuration not stated) | 999
40 | Cc1nc2nc(N)nc(N)c2c(C)c1Cc1cccc(C(F)(F)F)c1 | 1290
41 | Nc1cc(-c2ccc3ccccc3c2)nc2ccccc12 | 699
42 | CC(C)Nc1cc(C(=O)N[C@@H](Cc2ccccc2)[C@H](O)CNC2CCOCC2)c(F)c(N2CCCCS2(=O)=O)c1 | 183
43 | Fc1ccc(C(OCC2CCCN(Cc3cccc4cccnc34)C2)c2ccc(F)cc2)cc1 (configuration not stated) | 703
44 | FC(F)(F)c1ccc2[nH]c(-c3ccc(-c4ccc(CN5CCN(c6cnccn6)CC5)cc4)s3)nc2c1 | 652
45 | CC(=O)Oc1c(C2CCN(CCCCNC(=O)c3ccc(NC(=O)c4ccc(Cl)cc4)cc3)CC2)ccc2ccccc12 | 881
46 | Cc1nc2ccc(-c3ccc(OC(F)(F)F)cc3)cc2c(O)c1C#N | 20.7
47 | CCCCCCOc1ccc(C(=O)NCCCC2CCN(CCCCCNC(=O)C=Cc3ccc(Cl)c(Cl)c3)CC2)cc1 | 854
48 | COc1cc(C(F)(F)F)cc2[nH]c(CNCCCNc3nc4ccccc4[nH]3)cc12 | 280
49 | O=C(C=Cc1ccc(Cl)c(Cl)c1)NCCCCCN1CCC(CCCNC(=O)C2CC2c2ccccc2)CC1 (configuration not stated) | 765
50 | COc1ccc(CCN(C)CCCOc2ccc(NC(=O)COc3cccc4sc5ccccc5c(=O)c34)cc2)cc1OC | 459

Row | Compound | XC50 [nM]
51 | CCOc1c(Br)cc(Br)cc1CNCCCCNc1nc2ccccc2[nH]1 | 394
52 | CN(C)Cc1ccc(-c2ccc(NC(=O)c3ccc4c(=O)n(Cc5ccccc5)cnc4c3)cc2)cc1 | 647
53 | NS(=O)(=O)c1ccc(CNc2ccc3ncc(-c4ccc(OC(F)(F)F)cc4)n3n2)cc1 | 578
54 | O=S(=O)(c1cccc(Br)c1)N1CCCCC(c2ccc(C(F)(F)F)cc2)=N1 | 554
55 | CCCCOc1c(CCNCCCCNCCc2cc(OC)c3ccccc3c2OCCCC)cc(OC)c2ccccc12 | 925
56 | COc1cccc(CN2CCCC(OC(c3ccc(F)cc3)c3ccc(F)cc3)C2)c1O (configuration not stated) | 788
57 | CN1CCN(c2ccnc3ccc(NC(=O)Nc4ccc(Br)cc4)cc23)CC1 | 92.5
58 | CN1CCN(c2ccc(-c3cccc(NC(=O)c4cccc(Cl)c4)c3)nn2)CC1 | 579
59 | O=C(c1ccc(O)c(-c2cc(Cl)cc(Cl)c2)c1)N(CCO)CCO | 908
60 | O=c1nc(NCCCNCc2cc3c(Cl)cc(Cl)cc3[nH]2)[nH]c2ccccc12 | 993
61 | CC1(C)N=C(N)N=C(N)N1OCc1cc(Cl)c(CON2C(N)=NC(N)=NC2(C)C)cc1Cl | 37.8
62 | Cc1ccc2nc(-c3ccc(C(=O)NCc4ccc(Cl)c(Cl)c4)cc3)[nH]c2c1C | 790
63 | CN1CCN(Cc2nc(-c3ccc4c(Nc5ccc(Oc6ccccc6)cc5)ccnc4c3)cs2)CC1 | 310
64 | Cc1cc(-c2nc3ccc(N4CCN(C)CC4)cc3[nH]2)nn1Cc1cc(Cl)ccc1OCC(C)C | 878
65 | CC(C)OC(=O)c1ccc(NC(=O)N[C@@H](Cc2ccc(O)cc2)C(=O)NC2CC3CCC(C2)N3Cc2ccccc2)cc1 (some centres not stated) | 1080
66 | NC(=O)c1cc(-c2ccccc2)cc2c(C3CCC(NCc4ccccc4)C3)c[nH]c12 (configuration not stated) | 910
67 | O=S(=O)(Nc1ccc(CCN2CCCCC2CCN2CCCC2)cc1)c1ccc(-c2ccccc2)cc1 (configuration not stated) | 926
68 | COc1ccc(CCON2C(=N)N=C(N)NC2(C)C)cc1OC | 5.91
69 | O=C(Nc1ccc(Cn2ncc(N3CCCNCC3)c(Cl)c2=O)cc1)Nc1cc(C(F)(F)F)cc(C(F)(F)F)c1 | 588
70 | CN(Cc1ccccc1)C1CCCN(c2cc(NC(=O)c3cccs3)ccn2)C1 (configuration not stated) | 1130
71 | Fc1cccc(CNc2ncc(-c3ccsc3)c(-c3nccs3)n2)c1 | 238
72 | O=C(NCCCCCN1CCC(c2c[nH]c3ccccc23)CC1)Nc1cccc(I)c1 | 993
73 | CCCCCC(NCCCC)c1ccc(OCCOc2ccc(C(CCCCC)NCCCC)cc2)cc1 (configuration not stated) | 1240
74 | CCCC[C@H](NC(=O)O[C@H](COc1ccc(OCc2ccccc2)cc1)C(C)(C)C)C(=O)C(=O)Nc1cc[nH]n1 | 991
75 | CC(C)CNCc1cccc(-c2cccc(CNCCCN3CCN(C)CC3)c2)c1 | 1180

Row | Compound | XC50 [nM]
76 | COc1cc(F)c2ncc(F)c([C@@H](O)CN3CCC(NCc4cc5c(cn4)OCCO5)CC3)c2c1 | 477
77 | COc1ccc2[nH]c(C)cc(=NN=Cc3ccccc3)c2c1 | 1030
78 | CCCNC(=O)C1Cc2c([nH]c3ccc(Br)cc23)C2(CCN(CCc3ccccc3)CC2)N1 (configuration not stated) | 678
79 | O=C(Nc1ccccc1Cc1ccccc1)c1ccccc1C(F)(F)F | 782
80 | CCOC(=O)CNC(=O)N(CCN(Cc1ccccc1)C(=O)NCC(=O)OCC)Cc1ccccc1 | 769
81 | Cc1[nH]c(C)c(-c2ccc(-c3ccccc3Cl)nc2)c(=O)c1Br | 171
82 | Nc1c(Cl)cc(C(O)CNCCCCCOCCCc2ccc(O)c3ncccc23)cc1Cl (configuration not stated) | 992
83 | C=C[C@]1(C)C[C@@H](OC(=O)CNC[C@@H](O)CN2C[C@H](c3ccnc4ccc(OC)nc34)OC2=O)[C@@]2(C)[C@@H]3C(=O)CC[C@@]3(CC[C@@H]2C)[C@@H](C)[C@@H]1O | 948
84 | CCOc1ccccc1CNc1nccc(NCCc2cn(C)c3ccccc23)n1 | 1260
85 | Cc1n[nH]c2cc(Nc3nccc(Nc4ccc(Oc5ccccc5)cc4)n3)ccc12 | 600
86 | CCc1nc2nc(C)cc(Nc3ccc4c(c3)OCCO4)n2n1 | 1290
87 | CCCCCCN1CCCN(Cc2ccc(C(=O)Nc3ccc(CC)cc3)cc2)CC1 | 756
88 | CCCCN(CCCC)CC(O)c1cc(-c2ccc(Cl)cc2)nc2c(Cl)cc(Cl)cc12 (configuration not stated) | 26.3
89 | COc1ccc2nccc(NCC3(O)CCN(CC(O)c4ccc5c(c4)NC(=O)CS5)CC3)c2n1 (configuration not stated) | 834
90 | C=CCOC(=O)N1CCC(CNCc2cccc(-c3cccc(-c4nc5cc(F)ccc5[nH]4)c3)c2)C1 (configuration not stated) | 207
91 | CC(=O)Nc1nc(C(=O)Nc2cccc(-c3ccc(-c4nc5cccc(C)c5[nH]4)s3)c2)cs1 | 222
92 | COc1ccc2c(c1CCNCCCCNCCc1c(OC)ccc3c1CCCC3)CCCC2 | 376
93 | CCCCCn1c(Sc2ccc(C#N)c([N+](=O)[O-])c2)nnc1-c1ccc(Cl)cc1 | 1080
94 | CCC(C(C)C)n1ccc2c3c(N)nc(N)nc3ccc21 (configuration not stated) | 3.2
95 | COc1ccc(-c2ccc(NC(=O)c3ccc(C#N)cc3)cc2)cc1CN1CCCN(C)CC1 | 152
96 | Nc1ncc(-c2cccc(OCc3ccccc3)c2)cc1-c1nnc2ccc(Cl)nn12 | 1430
97 | NC(=O)c1sc(-n2cnc3ccccc32)cc1OCc1ccccc1[N+](=O)[O-] | 702
